Source: patent US9434711B2 (Janssen Pharmaceutica, NV, priority 2007, dated 2016)
One block for each compound: values may come before it.

How the values were obtained:
Male Sprague Dawley rats [1] = assay: Reversal of Icilin-Induced Behaviors in Rats; type: in vivo; settings: Rattus norvegicus, po, 1 h, 1 h post-icilin; for inhibition in vivo at 30 mg/kg: 30 mg/kg p.o.
Procedure: Male Sprague Dawley rats (225-450 g, Charles River Labs, n=4-6/treatment) were used to evaluate the ability of selected compounds of the formula (I) to reverse icilin-induced “wet-dog” shakes. Icilin was administered in PEG-400 or 10% solutol/H2O, at 1.0 or 3.0 mg/kg, i.p. and spontaneous “wet-dog” shakes (WDS) were counted 10-20 minutes post-icilin. […] Results are presented as a percent inhibition of shakes, which was calculated as [1-(test compound WDS count/vehicle WDS count)]×100.

canine TRPM8 = canine TRPM8 (Canis lupus familiaris, UniProt Q1A7N1); assay: In Vitro Canine TRPM8 Functional Assay (Ca2+ fluorescence, icilin activation); type: cell-based; settings: for IC50: HEK293 cells stably expressing canine TRPM8, icilin activation, eight-point dose-response, read-out: IC50; for inhibition at 0.5 µM: compound at 0.5 μM, read-out: % Inh @ 0.5; for inhibition at 0.5 µM / inhibition at 0.2 µM: canine TRPM8, icilin activation; for inhibition at 0.2 µM: compound at 0.2 μM, read-out: % Inh @ 0.2
Method in brief: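 Cells (HEK293, stable canine TRPM8) are seeded 24 h before assay. They are then dye-loaded with Calcium 3 at 37 °C followed by room temperature. Compound is added and monitored for 5 min, after which icilin (~80% maximal response) is added.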

Male Sprague Dawley rats [2] = assay: Chronic Constriction Injury (CCI)-Induced Model of Neuropathic Pain, Acetone-Induced Hypersensitivity; type: in vivo, rat; settings: Rattus norvegicus; for inhibition in vivo at 3 mg/kg: 3 mg/kg p.o.; for inhibition in vivo at 10 mg/kg: 10 mg/kg p.o.
Description: Male Sprague Dawley rats (225-450 g; n=5-8/treatment) were used to evaluate the ability of selected compounds of the formula (I) to reverse CCI-induced cold hypersensitivity. Four loose ligatures of 4-0 chromic gut were surgically placed around the left sciatic nerve under inhalation anesthesia as described by Bennett et al (Bennett G J, Xie Y K. Pain 1988, 33(1): 87-107). Fourteen to 35 days following CCI surgery, subjects were placed in elevated observation chambers containing wire mesh floors and five applications of acetone (0.05 mL/application separated by approximately 5 minutes) were spritzed onto the plantar surface of the paw using a multidose syringe. An abrupt withdrawal or lifting of the paw was considered a positive response. The number of positive responses was recorded for each rat over the five trials. Following baseline withdrawal determinations, compounds of formula (I) are administered in an appropriate vehicle, such as hydroxypropyl-β-cyclodextrin (HP β CD), methylcellulose, Methocel, 10% Solutol, or H2O, or the like, by the appropriate route, i.p. or p.o. […] Results are presented as a percent inhibition of […], which was calculated for each subject as [1−(test compound withdrawals/pre-test withdrawals)]×100 and then averaged by treatment.

Male Sprague Dawley rats [3] = assay: Inhibition of Icilin-Induced "Wet-Dog" Shakes in Rats; type: in vivo, rat; settings: Rattus norvegicus, po, 2 h, Water, 120 min pre-icilin, Na salt form
Procedure: Male Sprague Dawley rats (220-450 g, Charles River Labs, n=6-9/treatment) were used to evaluate the ability of selected compounds of the formula (I) to block icilin-induced “wet-dog” shakes (WDS). Compounds of the formula (I) were administered in an appropriate vehicle, such as hydroxypropyl-β-cyclodextrin (HPβCD), methocellulose, 10% Solutol, or H2O, or the like, by the appropriate route, i.p. or p.o., 30-120 minutes before icilin. Icilin was administered in PEG-400 or 10% solutol/H2O, at 1.0 or 3.0 mg/kg, i.p. and spontaneous “wet-dog” shakes were counted 10-20 minutes post-icilin. Results are presented as a percent inhibition of shakes, which was calculated as [1-(test compound WDS count/vehicle WDS count)]×100.

Sprague-Dawley rats = assay: CFA-Induced Paw Radiant Heat Hypersensitivity; type: in vivo, rat; settings: dose 10 p.o., HPbCD, treatment time 100 min, Na salt form
Procedure: Intraplantar injection of complete Freund's adjuvant (CFA) in rodents results in a long-lasting inflammatory reaction, characterized by a pronounced hypersensitivity to both thermal and mechanical stimuli. This hypersensitivity peaks between 24-72 hours following injection and can last for several weeks. To assess whether test compounds of the formula (I) reverse established hypersensitivity, a 100 μL intraplantar injection of CFA (suspended in a 1:1 emulsion of saline and heat-killed Mycobacterium tuberculosis in mineral oil) can be injected into a single hind paw of Sprague-Dawley rats (typically males ranging from 150-350 g). This paradigm also may be conducted with a multiple dosing or a prophylactic dosing regime designed to alter the course of hyperalgesia development. This test predicts the analgesic, anti-allodynic and antihyperalgesic effect of numerous effective clinical agents, including acetaminophen, NSAIDS such as aspirin and ibuprofen, and opioids, such as morphine.
Each rat is placed in a test chamber on a warm glass surface and allowed to acclimate for approximately 10 minutes. A radiant thermal stimulus (beam of light) is then focused through the glass onto the plantar surface of each hind paw in turn. The thermal stimulus is automatically shut off by a photoelectric relay when the paw is moved or when the cut-off time is reached (20 seconds for radiant heat at […]). An initial (baseline) response latency to the thermal stimulus is recorded for each animal prior to the injection of CFA. Twenty-four hours following intraplantar CFA injection, the response latency of the animal to the thermal stimulus is then re-evaluated and compared to the animal's baseline response time. […] Immediately following the post-CFA latency assessment, test compound or vehicle (usually Solutol, hydroxypropyl methylcellulose, hydroxypropyl beta-cyclodextrin or PEG-400) is administered i.p. or p.o. to rats. Post-compound treatment withdrawal latencies are assessed at fixed time intervals, typically 30, 60 and 120 minutes. The percent reversal (% R) of hypersensitivity is calculated according to the following formula: % Reversal=(Treatment Response-CFA Response)/(Baseline Response-CFA Response)×100.

Male Sprague Dawley rats [4] = assay: Rightward Shift of Icilin Dose Effect Curve in Rats; type: in vivo; settings: Rattus norvegicus, ip; icilin i.p., wet-dog shakes, no pretreatment; read-out: Icilin ED50, mg/kg, i.p., no pretreatment
Procedure: Male Sprague Dawley rats (200-400 g, Charles River Labs, n=6-9/treatment) were administered icilin in a suitable vehicle (e.g. PEG-400, 10% Solutol) at 0.1-30 mg/kg, i.p. Spontaneous “wet-dog” shakes were counted 10-20 minutes post-icilin in order to generate a icilin dose-effect curve. A compound of the present invention was administered orally in hydroxypropyl-β-cyclodextrin 60 minutes before icilin challenge to assess the compound's ability to inhibit spontaneous “wet-dog” shakes (WDS) produced by a range of icilin doses. The ED50 of the icilin dose-effect curve generated in the presence of TRPM8 antagonist may be compared to that generated in the presence of vehicle to determine the magnitude of rightward shift as shown below in Table 7.

[5] = po, 1 h, 30 mg/kg p.o., 10% Solutol, pretreatment 1 hr, CO2H form, read-out: Percent Inhibition
[6] = po, 1 h, 10% Solutol, pretreatment 1 hr, CO2H form, read-out: Percent Inhibition
[7] = po, 2 h, Water, pretreatment 2 hr, Na salt form, read-out: Percent Inhibition

Chain of canine TRPM8 (Q1A7N1 1-1104): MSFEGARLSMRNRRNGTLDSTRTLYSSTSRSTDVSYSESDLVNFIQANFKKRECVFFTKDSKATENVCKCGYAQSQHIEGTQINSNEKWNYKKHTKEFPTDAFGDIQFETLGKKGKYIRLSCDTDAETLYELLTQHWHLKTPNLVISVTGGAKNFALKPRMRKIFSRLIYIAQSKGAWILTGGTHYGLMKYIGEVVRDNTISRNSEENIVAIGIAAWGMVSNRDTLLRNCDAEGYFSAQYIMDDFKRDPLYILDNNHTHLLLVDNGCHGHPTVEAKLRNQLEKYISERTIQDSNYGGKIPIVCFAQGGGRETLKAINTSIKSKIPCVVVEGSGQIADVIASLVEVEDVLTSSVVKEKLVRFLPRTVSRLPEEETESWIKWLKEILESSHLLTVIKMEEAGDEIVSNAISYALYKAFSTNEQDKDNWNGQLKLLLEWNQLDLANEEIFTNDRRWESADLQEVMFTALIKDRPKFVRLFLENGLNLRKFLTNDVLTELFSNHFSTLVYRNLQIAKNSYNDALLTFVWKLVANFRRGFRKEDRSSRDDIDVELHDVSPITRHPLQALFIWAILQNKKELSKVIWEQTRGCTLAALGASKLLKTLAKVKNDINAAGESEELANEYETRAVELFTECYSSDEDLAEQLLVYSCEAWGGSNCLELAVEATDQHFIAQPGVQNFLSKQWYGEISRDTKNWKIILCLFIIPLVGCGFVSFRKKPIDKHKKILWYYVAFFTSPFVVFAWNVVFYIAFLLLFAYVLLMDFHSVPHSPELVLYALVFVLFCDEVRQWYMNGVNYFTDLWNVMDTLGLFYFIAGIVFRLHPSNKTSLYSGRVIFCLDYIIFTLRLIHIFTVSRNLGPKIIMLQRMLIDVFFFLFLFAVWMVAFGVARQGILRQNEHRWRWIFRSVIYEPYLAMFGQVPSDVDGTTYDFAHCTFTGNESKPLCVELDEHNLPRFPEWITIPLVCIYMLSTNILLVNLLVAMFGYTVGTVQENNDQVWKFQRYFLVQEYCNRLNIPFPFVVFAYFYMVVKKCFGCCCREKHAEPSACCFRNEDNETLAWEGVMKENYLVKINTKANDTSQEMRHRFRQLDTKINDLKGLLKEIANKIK

SMILES: O=S(=O)(c1ccccc1)N(Cc1ccc(F)c(C(F)(F)F)c1)c1sc2ccccc2c1Cl [Compound 7, N-(3-Chloro-benzo[b]thiophen-2-yl)-N-(4-fluoro-3-trifluoromethyl-benzyl)-benzenesulfonamide]
- inhibition in vivo at 30 mg/kg (Male Sprague Dawley rats [1]): 65%
- IC50 (canine TRPM8): 7.3 nM
- inhibition at 0.5 µM (canine TRPM8): 97%
- inhibition in vivo at 30 mg/kg (Male Sprague Dawley rats [2]; ip, 2 h, 30 mg/kg i.p., 10% Solutol, pretreatment 2 hr, CO2H form, read-out: Percent Inhibition): 66%
- inhibition in vivo at 30 mg/kg (Male Sprague Dawley rats [2]; [5]): 47%

SMILES: Cc1c(N(Cc2cccc3cccnc23)S(=O)(=O)c2cccnc2)sc2ccccc12 [Compound 14, N-(3-Methyl-benzo[b]thiophen-2-yl)-N-(quinolin-8-ylmethyl)-pyridine-3-sulfonamide]
- inhibition in vivo at 30 mg/kg (Male Sprague Dawley rats [1]): -16%
- IC50 (canine TRPM8): 18.9 nM
- inhibition at 0.5 µM (canine TRPM8): 99%

SMILES: Cc1c(N(Cc2ccc(F)c(F)c2)S(=O)(=O)c2ccccc2)sc2ccccc12 [Compound 125, N-(3,4-Difluoro-benzyl)-N-(3-methyl-benzo[b]thiophen-2-yl)-benzenesulfonamide]
- inhibition in vivo at 30 mg/kg (Male Sprague Dawley rats [1]): 39%
- IC50 (canine TRPM8): 5 nM
- inhibition at 0.5 µM (canine TRPM8): 99%

SMILES: O=S(=O)(c1ccccc1)N(Cc1ccc(F)c(F)c1)c1sc2ccccc2c1Br [Compound 148, N-(3-Bromo-benzo[b]thiophen-2-yl)-N-(3,4-difluoro-benzyl)-benzenesulfonamide]
- inhibition in vivo at 30 mg/kg (Male Sprague Dawley rats [1]): 33%
- IC50 (canine TRPM8): 2.1 nM
- inhibition at 0.5 µM (canine TRPM8): 98%

SMILES: O=S(=O)(c1cccnc1)N(Cc1ccc(F)c(F)c1)c1sc2ccccc2c1Br [Compound 149, N-(3-Bromo-benzo[b]thiophen-2-yl)-N-(3,4-difluoro-benzyl)-pyridin-3-yl-sulfonamide]
- inhibition in vivo at 30 mg/kg (Male Sprague Dawley rats [1]): -3%
- IC50 (canine TRPM8): 7.1 nM
- inhibition at 0.2 µM (canine TRPM8): 102%
- inhibition at 0.5 µM (canine TRPM8): 101%

SMILES: O=S(=O)(c1ccccc1)N(Cc1ccccn1)c1sc2ccccc2c1Br [Compound 168, N-(3-Bromo-benzo[b]thiophen-2-yl)-N-(pyridin-2-ylmethyl)-benzenesulfonamide]
- inhibition in vivo at 30 mg/kg (Male Sprague Dawley rats [1]): -29%
- IC50 (canine TRPM8): 14.2 nM
- inhibition at 0.5 µM (canine TRPM8): 96%

SMILES: O=C1NC(c2cccc([N+](=O)[O-])c2)=CCN1c1ccccc1O [Icilin, reference compound]
- ED50 (Male Sprague Dawley rats [4]): 0.75 mg/kg

Second part, led by results:

- IC50 (canine TRPM8): 2.5 nM
- inhibition at 0.5 µM (canine TRPM8): 99%
SMILES: O=S(=O)(c1ccccc1)N(Cc1ccc(OC(F)(F)F)cc1)c1sc2ccccc2c1Br [Compound 174, N-(3-Bromo-benzo[b]thiophen-2-yl)-N-(4-trifluoromethoxy-benzyl)-benzenesulfonamide]
- inhibition in vivo at 30 mg/kg (Male Sprague Dawley rats [1]): 45%

- IC50 (canine TRPM8): 5.7 nM
- inhibition at 0.5 µM (canine TRPM8): 96%
SMILES: O=S(=O)(c1ccccc1)N(Cc1ccc(F)c(C(F)(F)F)c1)c1sc2ccccc2c1Br [Compound 177, N-(3-Bromo-benzo[b]thiophen-2-yl)-N-(4-fluoro-3-trifluoromethyl-benzyl)-benzenesulfonamide]
- inhibition in vivo at 3 mg/kg (Male Sprague Dawley rats [1]; 3 mg/kg p.o.): 15%
- inhibition in vivo at 10 mg/kg (Male Sprague Dawley rats [1]; 10 mg/kg p.o.): 53%
- inhibition in vivo at 16.6 mg/kg (Male Sprague Dawley rats [1]; 16.6 mg/kg p.o.): 54%
- inhibition in vivo at 30 mg/kg (Male Sprague Dawley rats [1]): 66%
- inhibition in vivo at 100 mg/kg (Male Sprague Dawley rats [1]; 100 mg/kg p.o.): 52%
- inhibition in vivo at 30 mg/kg (Male Sprague Dawley rats [2]; ip, 3 h, 30 mg/kg i.p., 10% Solutol, pretreatment 3 hr, CO2H form, read-out: Percent Inhibition): 60%
- inhibition in vivo at 3 mg/kg (Male Sprague Dawley rats [2]; [6]): 23%
- inhibition in vivo at 10 mg/kg (Male Sprague Dawley rats [2]; [6]): 49%
- inhibition in vivo at 30 mg/kg (Male Sprague Dawley rats [2]; [5]): 46%
- inhibition in vivo at 100 mg/kg (Male Sprague Dawley rats [2]; po, 1 h, 100 mg/kg p.o., 10% Solutol, pretreatment 1 hr, CO2H form, read-out: Percent Inhibition): 70%

- IC50 (canine TRPM8): 12.2 nM
- inhibition at 0.2 µM (canine TRPM8): 99%
- inhibition at 0.5 µM (canine TRPM8): 101%
SMILES: O=S(=O)(c1cccnc1)N(Cc1ccc(F)c(C(F)(F)F)c1)c1sc2ccccc2c1Br [Compound 188, N-(3-Bromo-benzo[b]thiophen-2-yl)-N-(4-fluoro-3-trifluoromethyl-benzyl)-pyridin-3-yl-sulfonamide]
- inhibition in vivo at 30 mg/kg (Male Sprague Dawley rats [1]): 7%

- IC50 (canine TRPM8): 0.8 nM
- inhibition at 0.2 µM (canine TRPM8): 93%
SMILES: CC(C)(O)c1c(N(Cc2ccc(F)c(C(F)(F)F)c2)S(=O)(=O)c2ccc(C(=O)O)cc2)sc2ccccc12 [Compound 361, N-(4-Fluoro-3-trifluoromethylbenzyl)-N-(3-(1-hydroxy-1-methyl-ethyl)-benzo[b]thiophen-2-yl)-4-carboxy-benzenesulfonamide]
- ED50 (Male Sprague Dawley rats [3]): 4.5 mg/kg
- Percent Reversal (Sprague-Dawley rats): 28%
- inhibition in vivo at 3 mg/kg (Male Sprague Dawley rats [2]; [7]): 9%
- inhibition in vivo at 10 mg/kg (Male Sprague Dawley rats [2]; [7]): 17%
- inhibition in vivo at 30 mg/kg (Male Sprague Dawley rats [2]; po, 2 h, 30 mg/kg p.o., Water, pretreatment 2 hr, Na salt form, read-out: Percent Inhibition): 91%
- inhibition in vivo at 30 mg/kg (Male Sprague Dawley rats [2]; po, 4 h, 30 mg/kg p.o., Water, pretreatment 4 hr, Na salt form, read-out: Percent Inhibition): 74%
- ED50 (Male Sprague Dawley rats [2]; po, Water, pretreatment 2 hr, Na salt form): 13 mg/kg
